Reference: PubChem BioAssay (NCI)
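Each compound was tested at five concentrations against cells in 96-well plates for 48 hours. At the GI50, growth is halved. Definition used: TGI = concentration required for complete inhibition of growth.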

Tests used:
Experiment in all cases: inhibition of tumour cell growth, NCI panel, 48 h
ACHN renal = test system: ACHN renal
CAKI-1 renal = test system: CAKI-1 renal
EKVX NSCLC = test system: EKVX NSCLC
HCT-15 colon = test system: HCT-15 colon
NCI-H460 lung = test system: NCI-H460 lung
RPMI-8226 leukemia = test system: RPMI-8226 leukemia
SF-268 CNS = test system: SF-268 CNS
SK-OV-3 ovarian = test system: SK-OV-3 ovarian
SNB-19 CNS = test system: SNB-19 CNS
SNB-75 CNS = test system: SNB-75 CNS

SMILES	TGI (ACHN renal)	TGI (CAKI-1 renal)	TGI (EKVX NSCLC)	TGI (HCT-15 colon)	TGI (NCI-H460 lung)	TGI (RPMI-8226 leukemia)	TGI (SF-268 CNS)	TGI (SK-OV-3 ovarian)	TGI (SNB-19 CNS)	TGI (SNB-75 CNS)	GI50 (ACHN renal)	GI50 (CAKI-1 renal)	GI50 (EKVX NSCLC)	GI50 (HCT-15 colon)	GI50 (NCI-H460 lung)	GI50 (RPMI-8226 leukemia)	GI50 (SF-268 CNS)	GI50 (SNB-19 CNS)	GI50 (SK-OV-3 ovarian)	GI50 (SNB-75 CNS)
Cc1cc2c(=O)cc(-c3ccc(F)cc3)oc2c(C(=O)O)c1C	> 100 µM	> 100 µM	> 100 µM	> 100 µM	> 100 µM	> 100 µM	> 100 µM	> 100 µM	> 100 µM	> 100 µM	–	–	–	–	–	–	–	–	–	–
O=S(=O)(NCCO)c1cc[c]([Sb](=[O])([OH])[OH])cc1	> 100 µM	> 100 µM	> 100 µM	> 100 µM	> 100 µM	> 100 µM	> 100 µM	–	> 100 µM	–	> 100 µM	> 100 µM	> 100 µM	> 100 µM	> 100 µM	> 100 µM	> 100 µM	> 100 µM	–	–
Cc1cc(C)c(C(=O)/C=C/c2ccccc2)c(C)c1	> 100 µM	> 100 µM	> 100 µM	51.3 µM	39.3 µM	90.5 µM	50.6 µM	> 100 µM	75.3 µM	> 100 µM	–	–	–	–	–	–	–	–	–	–
Cc1cc2c(=O)[nH]c(N)nc2nc1C	> 100 µM	> 100 µM	> 100 µM	> 100 µM	> 100 µM	> 100 µM	> 100 µM	> 100 µM	> 100 µM	> 100 µM	–	–	–	–	–	–	–	–	–	–
COC(=O)[C@@H](OC)[C@@H]1Cc2cc3cc(OC4CC(OC5CC(O)C(O)C(C)O5)C(O)C(C)O4)c(C)c(O)c3c(O)c2C(=O)[C@H]1OC1CC(OC2CC(OC3CC(C)(O)C(O)C(C)O3)C(O)C(C)O2)C(O)C(C)O1 (stereo partly drawn)	> 16.5 µM	–	1.22 µM	> 16.5 µM	> 16.5 µM	0.112 µM	> 7.49 µM	> 16.5 µM	> 8.89 µM	0.0487 µM	0.0313 µM	0.0425 µM	0.0457 µM	0.0575 µM	0.0429 µM	0.0329 µM	0.0455 µM	0.0449 µM	0.0811 µM	0.0212 µM
CC(C)(C)N=CN(C=C(c1ccccc1)c1ccccc1)C1CCCCC1	> 100 µM	> 100 µM	> 100 µM	> 100 µM	> 100 µM	–	> 100 µM	–	> 100 µM	> 100 µM	–	–	–	–	–	–	–	–	–	–
N#C/C(=C\c1cccc2cnccc12)N1N=NC2C=CC=CC21 (stereo not drawn)	> 100 µM	> 100 µM	> 100 µM	> 100 µM	32.7 µM	–	> 100 µM	25.9 µM	> 100 µM	3.61 µM	2.5 µM	1.7 µM	2.63 µM	1.74 µM	3.98 µM	–	3.06 µM	6.29 µM	2.08 µM	0.184 µM
O=C(CC1C(=O)Nc2ccccc2S1(=O)=O)Nc1cccc(Cl)c1 (stereo not drawn)	33.5 µM	41.2 µM	42.2 µM	31.5 µM	31.8 µM	24.1 µM	30.1 µM	–	46.8 µM	31.8 µM	–	–	–	–	–	–	–	–	–	–
CCCCCCCCCCCCCCNCC(OCC)OCC	27 µM	–	34.7 µM	23.2 µM	34.3 µM	–	36.7 µM	32.8 µM	31.8 µM	23 µM	–	–	–	–	–	–	–	–	–	–
